# In PubChem BioAssay AID686941 (The Scripps Research Institute Molecular Screening Center, 2013):
# pIC50: −log10 of the molar value.
# Legend:
# [1] = target: Cytochrome P450 3A4 (Homo sapiens) (UniProt P08684); assay: recombinant CYP3A isoform inhibitors – biochemical, LC-MS/MS, purified recombinant enzymes, counter-screen, late-stage follow-up (AID 686941); details: recombinant CYP3A4/CYP3A5, LC-MS/MS metabolite formation; CYP3A4
# [2] = target: Cytochrome P450 3A5 (Homo sapiens) (UniProt P20815); assay: as above; details: recombinant CYP3A4/CYP3A5, LC-MS/MS metabolite formation, CYP3A5
# Sequence of Cytochrome P450 3A5 (Homo sapiens) (P20815 whole entry, looked up): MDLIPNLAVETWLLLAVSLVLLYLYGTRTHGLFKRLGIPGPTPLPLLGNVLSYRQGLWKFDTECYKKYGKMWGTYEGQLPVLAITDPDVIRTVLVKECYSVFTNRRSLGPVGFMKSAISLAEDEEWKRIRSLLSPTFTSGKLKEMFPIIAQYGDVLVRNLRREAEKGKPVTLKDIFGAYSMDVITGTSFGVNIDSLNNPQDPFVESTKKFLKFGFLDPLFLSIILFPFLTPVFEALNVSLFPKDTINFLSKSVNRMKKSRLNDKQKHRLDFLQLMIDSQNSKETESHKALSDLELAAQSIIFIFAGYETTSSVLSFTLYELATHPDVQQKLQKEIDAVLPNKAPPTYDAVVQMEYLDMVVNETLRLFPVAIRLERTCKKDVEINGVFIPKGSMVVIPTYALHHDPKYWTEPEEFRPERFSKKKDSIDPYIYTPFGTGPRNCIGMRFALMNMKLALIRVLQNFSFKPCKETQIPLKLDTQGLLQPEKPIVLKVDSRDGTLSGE
# Sequence of Cytochrome P450 3A4 (Homo sapiens) (P08684 whole entry, looked up, canonical isoform): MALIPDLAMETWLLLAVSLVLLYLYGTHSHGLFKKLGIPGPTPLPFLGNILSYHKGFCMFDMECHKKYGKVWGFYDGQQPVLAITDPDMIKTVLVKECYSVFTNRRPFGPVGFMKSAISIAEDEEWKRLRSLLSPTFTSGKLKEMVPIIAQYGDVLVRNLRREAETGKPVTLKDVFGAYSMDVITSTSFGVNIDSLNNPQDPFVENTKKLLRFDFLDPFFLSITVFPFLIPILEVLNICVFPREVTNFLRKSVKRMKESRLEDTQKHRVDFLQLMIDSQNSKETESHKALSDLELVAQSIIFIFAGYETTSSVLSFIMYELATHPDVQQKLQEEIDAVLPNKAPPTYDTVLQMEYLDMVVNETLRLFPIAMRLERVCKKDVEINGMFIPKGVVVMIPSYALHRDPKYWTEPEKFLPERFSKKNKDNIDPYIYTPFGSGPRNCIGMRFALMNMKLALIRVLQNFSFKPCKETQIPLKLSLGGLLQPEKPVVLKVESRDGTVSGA
pIC50 [1],pIC50 [2],"inhibition ([2]; at 60 µM, stronger effect = higher value)",SMILES
5.77,4.89,–,O=C(Nc1ccc(-c2ccc3ccccc3c2)cc1)Nc1ccc(-c2ccnc3nc[nH]c23)cc1
< 6.70,–,26%,NC(=O)c1ccc(-c2ccc(NC(=O)Nc3ccc(-c4ccnc5nc[nH]c45)cc3)cc2)cc1
